These results are taken from US6734003B2, “Phosphodiesterase 10” (Icos Corporation, priority 1998, dated 2004).

Assay [1] deals with T1, PDE10 (Homo sapiens, UniProt O76083, E580G).
T1 construct: The entire open reading frame of the PDE10 cDNA (clone FB94a) was placed into a yeast ADH vector; made in house; host or cells: Saccharomyces cerevisiae strain BJ2-54 (no endogenous PDE activity); 100,000 x g supernatant of the lysate, not purified
Nature of the assay: Kinetic assays of recombinant PDE10 yeast extract (cAMP and cGMP hydrolysis). In kind it is biochemical.

In assay [2] the target is T1, PDE10. Nature of the assay: PDE10 inhibition by isozyme-specific PDE inhibitors, cAMP as substrate. In kind it is biochemical. As for the experimental part: The entire open reading frame of the PDE10 cDNA (clone FB94a) was placed into a yeast ADH vector including the alcohol dehydrogenase promoter. The construct was built in two steps.
Following transformation into BJ2-54, a yeast strain lacking endogenous PDE activity, a colony was selected, streaked out on SC-leu plates and a single colony carrying the PDE10 construct was chosen for further characterization. Following overnight growth in SC-leu media the culture was diluted 1:250 in fresh SC-leu and grown overnight at 30° C. until it reached a density of 10^7 cells/ml. The cells were collected by centrifugation, washed once with YEP 3% glycerol media, resuspended in YEP containing 3% glycerol, and grown at 30° C. for another 24 hours. The cells were harvested by centrifugation, washed with water, and frozen at −70° C. until use. Prior to use, an aliquot of the yeast extract was analyzed by SDS PAGE. A protein specific to yeast carrying the PDE10 expression construct that migrated on the SDS PAGE gels with the expected mobility (55.5 kDa) was observed by Coomassie blue staining.
Yeast cells (1×10^10) were thawed with 200 μg/ml each of pepstatin A, leupeptin, and aprotinin 1 mM DTT, and 20 μg/ml calpain inhibitors (I and II). Two hundred μl of glass beads (0.5 mm, acid washed) were added, and the mixture was vortexed for eight cycles of 30 seconds each. Samples were cooled for 4.5 minutes at 4° C. between cycles. After lysis, 0.8 ml lysis buffer was added, the lysate separated from the beads, and the lysate centrifuged for 30 minutes at 100,000×g in a Beckman TL-100 tabletop centrifuge. The supernatant was aliquoted, frozen in dry ice/ethanol, and stored at −70° C.
Kinetic assays were performed on a BIOMEK® 1000 programmable robotic station (Beckman Instruments). […] The highest nucleotide concentration contained 1 to 1.5 million Cerenkov counts of ^32P-labeled substrate per assay. […] The enzyme dilution buffer consisted of 25 mM Tris-HCl pH 8.9, 5 μM ZnSO4 5 mM MgCl2, 0.1 mM DTT, 100 mM NaCl and 0.1 mg/ml BSA (Calbiochem; fatty acid free). Activity at each substrate concentration was derived from a linear fit of successive four-fold enzyme dilutions across the plate.
Assays were performed at 30° C. for 15 minutes. After 12 minutes, 5 μl snake venom from Crotalus atrox (15 mg/ml protein) was added to each reaction. Assays were stopped by addition 200 μl of charcoal suspension (25 mg/ml activated charcoal in 0.1 M monobasic potassium phosphate). The plate was centrifuged at 2600 rpm, and 200 μl of each supernatant was transferred into Microbeta® counting plates and counted on a WALLAC Microbeta® by Cerenkov counting. Data were evaluated with a predesigned Microsoft Excel® Spreadsheet, and the kinetic parameters were fitted to a Michaelis-Menton model using the program Table Curve® from Jandel Scientific.

Assay [3] has as its system PDE3. As to conditions: target family PDE3; Manganiello et al. 1990; cited from earlier work.
In assay [4] the target is PDE5 (Homo sapiens, UniProt O76074). As to conditions: target family PDE5; Coste and Grodin 1995; cited from earlier work.
For assay [5], the system named is PDE4. As to conditions: target family PDE4; Bolger et al. 1993; cited from earlier work.
The target of assay [6] is PDE2 (Homo sapiens, UniProt O00408). As to conditions: target family PDE2; Podzuweit et al. 1995; cited from earlier work.
Assay [7] deals with non-specific. Particulars: Coste and Grodin 1995, read-out: Target Family IC50; cited from earlier work.
Where [8] appears, read: cAMP as substrate, recombinant PDE10 (clone FB94a) yeast extract.

Read-outs that look alike come from different tables or passages of the source.

T1 sequence (O76083 1-466 isoform O76083-3 E453G): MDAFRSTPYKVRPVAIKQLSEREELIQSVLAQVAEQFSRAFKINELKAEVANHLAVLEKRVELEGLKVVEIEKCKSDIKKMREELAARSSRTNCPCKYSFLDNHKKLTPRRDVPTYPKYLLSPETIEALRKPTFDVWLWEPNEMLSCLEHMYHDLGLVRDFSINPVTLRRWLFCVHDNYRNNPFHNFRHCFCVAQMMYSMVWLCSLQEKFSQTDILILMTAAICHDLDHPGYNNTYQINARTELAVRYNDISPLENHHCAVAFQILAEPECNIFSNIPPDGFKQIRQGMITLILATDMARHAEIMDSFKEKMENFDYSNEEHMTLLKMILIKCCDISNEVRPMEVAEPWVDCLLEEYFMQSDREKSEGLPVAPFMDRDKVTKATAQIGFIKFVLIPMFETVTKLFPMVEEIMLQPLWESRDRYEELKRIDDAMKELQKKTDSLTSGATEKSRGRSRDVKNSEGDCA
Sequence of PDE2 (O00408 whole entry): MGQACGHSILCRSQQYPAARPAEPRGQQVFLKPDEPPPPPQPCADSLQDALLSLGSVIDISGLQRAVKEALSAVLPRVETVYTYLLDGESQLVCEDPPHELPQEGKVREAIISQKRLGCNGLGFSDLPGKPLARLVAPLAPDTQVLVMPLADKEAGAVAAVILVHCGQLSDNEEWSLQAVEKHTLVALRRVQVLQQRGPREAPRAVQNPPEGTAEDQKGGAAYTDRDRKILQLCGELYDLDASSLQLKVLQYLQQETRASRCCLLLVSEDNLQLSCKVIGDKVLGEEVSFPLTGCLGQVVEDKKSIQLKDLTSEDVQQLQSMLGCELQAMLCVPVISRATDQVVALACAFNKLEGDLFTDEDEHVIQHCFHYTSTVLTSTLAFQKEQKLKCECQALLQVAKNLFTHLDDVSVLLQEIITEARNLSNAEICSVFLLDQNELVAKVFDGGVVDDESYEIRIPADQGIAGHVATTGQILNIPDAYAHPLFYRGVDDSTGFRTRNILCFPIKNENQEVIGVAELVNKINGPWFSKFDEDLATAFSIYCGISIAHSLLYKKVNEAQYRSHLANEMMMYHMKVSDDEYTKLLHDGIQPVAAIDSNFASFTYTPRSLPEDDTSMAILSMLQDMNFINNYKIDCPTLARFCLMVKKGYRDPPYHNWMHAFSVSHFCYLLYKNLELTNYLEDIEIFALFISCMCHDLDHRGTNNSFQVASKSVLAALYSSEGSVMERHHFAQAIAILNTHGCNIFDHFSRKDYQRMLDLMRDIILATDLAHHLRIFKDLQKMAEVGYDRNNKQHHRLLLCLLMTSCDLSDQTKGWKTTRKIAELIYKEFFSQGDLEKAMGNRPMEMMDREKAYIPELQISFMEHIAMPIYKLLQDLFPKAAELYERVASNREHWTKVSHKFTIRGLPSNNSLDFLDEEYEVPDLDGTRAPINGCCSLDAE

For orientation: Km means the substrate concentration at which the rate is half of its maximum. As for `Nc1nc2c(ncn2[C@@H]2O[C@@H]3COP(=O)(O)O[C@H]3[C@H]2O)c(=O)[nH]1` [cGMP], the “hydrolytic activity in the extract” value in assay [1] (PDE10 yeast extract) is reported as 0.035 (±0.01) μmol/min/mg. In addition, the Km in assay [1] (substrate of PDE10, 30° C., Michaelis-Menton fit) amounted to 5 nM.
In general, IC50 refers to the concentration that gives 50% inhibition. For `CN(C(=O)CCCOc1ccc2[nH]c(=O)ccc2c1)C1CCCCC1` [Cilostamide], the values for the IC50 in assay [2] and in assay [3] were 100 µM and 0.04 to 0.9 µM, respectively.
As to `CCCOc1ccc(NS(C)(=O)=O)cc1-c1nc2c(c(C)nn2C)c(=O)[nH]1` [DMPPO], the IC50 in assay [2] (setting [8]) was 9 µM; in assay [4] it was 0.003 µM.
For the compound `COc1ccc(C2CNC(=O)C2)cc1OC1CCCC1` (stereo not drawn) [Rolipram, rolipram], the IC50 in assay [2] was 529 µM; in assay [5], […].
For the compound `CCCCCCC(C(C)O)n1cnc2c(N)ncnc21` (stereo not drawn) [EHNA, erythro-9-(2-hydroxy-3-nonyl)adenine], the IC50 in assay [6] was 0.8 µM; in assay [2], 477 µM.
On to isobutyl methyl xanthine [IBMX], for which the IC50 was 59 µM in assay [2] (setting [8]) and 2 to 20 µM in assay [7].
